According to US20230136075A1, “TREATMENT FOR SEPSIS-INDUCED ORGAN DYSFUNCTION” (The Florey Institute of Neuroscience and Mental Health, priority 2020, published 2023):

Tested on: patients with septic shock
Assay: Randomised, double-blind, placebo-controlled trial of mega-dose vitamin C for septic shock (Example 4)
Assay type: in vivo
Conditions: trial ongoing
Text: A randomised, double-blind, placebo-controlled trial is being conducted to evaluate whether the administration of intravenous mega-dose vitamin C (60 g/day) increases urine output in patients with septic shock admitted to an intensive care unit (ICU).
Patients admitted to the Austin Hospital ICU with the primary diagnosis of septic shock defined according to the Sepsis-3 criteria are screened for eligibility. All the diagnostic criteria of septic shock (based on the SEPSIS-3 criteria) were to be fulfilled simultaneously within the last 24 hours, and vasopressors infused continuously at enrolment. Definition of sepsis is that of suspected or documented infection and an acute increase of ≥2 sequential organ failure assessment (SOFA) points consequent to the infection (a proxy of organ dysfunction). Definition of septic shock are sepsis and need for vasopressor therapy to keep mean arterial pressure (MAP) >65 mmHg for >2 hours and lactate >2 mmol/L, despite adequate fluid resuscitation.
All eligible patients with septic shock are randomised to receive either: • (i) Mega-dose Vitamin C intravenous infusion (sodium ascorbate 30 grams [100 ml] diluted with 150 ml of 5% dextrose infused intravenously over 1 hour followed by sodium ascorbate 30 grams [100 ml] diluted with 150 ml of 5% dextrose infused intravenously over 5 hours); or • (ii) Placebo intravenous infusion administered once (250 ml of 5% dextrose infused intravenously over 1 hour followed by 250 ml of 5% dextrose infused intravenously over 5 hours).
The study infusions are identical in appearance and are supplied in identical 250m1 5% dextrose bags prepared by ICU staff.
Vitamin C levels and arterial blood gas samples are measured at five time points (before loading infusion; after loading dose; 3 hours after the beginning of maintenance infusion; at the end of maintenance infusion; and, 24 hours following the beginning of the study infusion). A single urinary assessment is made of oxalate crystals obtained from testing a 24-hour collection of urine obtained at 24 hours following the beginning of the study infusion. Arterial blood gas samples are also measured to monitor for changes in serum sodium (Na+) and potassium (K+) levels at four time points (before loading infusion [baseline]; after loading dose; 3 hours after the beginning of maintenance infusion; and, at the end of maintenance infusion). The study infusion is stopped if the serum Na+ levels increases >10 mEq/L from the baseline value or absolute serum Na+ levels>160 mEq/L. Information is also collected on fluid balance, intravenous fluid therapy, use of vasopressor drugs and dosage, use of mechanical ventilation and renal replacement therapy and all biochemical and hematological and blood gas analysis variables as well as patient demographics, diagnosis, vital signs and illness severity score, ICU and hospital outcomes (e.g. admission and discharge dates as well as ICU and hospital survival status).
The primary efficacy outcome for this study is the cumulative urine output for 24 consecutive hours following the beginning of the study infusion.
Data analysis is performed on an intention-to-treat basis. Summary statistics are used to describe the clinical data and presented as mean±standard deviation, median with interquartile range (IQR) or percentages as appropriate. Chi-squared analysis with Fisher's exact test (as appropriate), and Student's t-test (Mann Whitney U test for non-normal distributions) are used to compare data between the active treatment group and the control group with statistical significance declared for probability values of less than 0.05. Analysis of the outcome of excluded patients due to other trials etc. is in accordance with CONSORT guidelines.

Q: `O=C1O[C@H]([C@@H](O)CO)C([O-])=C1O.[Na+]` [sodium ascorbate] was tested. Which body temperature (60 g/day iv) did it give?
A: decreases

Q: What about the “oxalate excretion in the urine” value (60 g/day iv) of the same compound?
A: no evidence of increased oxalate excretion

Q: And the “requirement for vasopressor support” value (60 g/day iv)?
A: decreases

Q: What about the serum sodium levels (60 g/day iv) of the same compound?
A: no evidence of increased oxalate excretion in the urine or increases in serum sodium levels

Q: And the urinary output (60 g/day iv)?
A: increases

Q: What about the safety concern signal (sodium ascorbate 30 g over 1 hour then 30 g over 5 hours iv (60 g/day)) of the same compound?
A: no safety concern signal
